In patent publication US20130085133A1, “ANTI-VIRAL TREATMENT AND ASSAY TO SCREENFOR ANTI-VIRAL AGENT” (Sourthern Research Institute Office of Commercialization …, priority 2010, published 2013):

Experiments:
RSV, Long strain = experiment: virus titer Reduction (VTR) assay, progeny virus TCID50 in HEp-2 cells; type: cell-based, respiratory syncytial virus (RSV); details: human respiratory syncytial virus, 48 h; for log reduction at 3 µg/mL: 3 ug/ml compound, read-out: TCID-50 Reduction @ 3 ug/ml; for log reduction at 5 µg/mL: 5 ug/ml compound, read-out: TCID-50 Reduction @ 5 ug/ml; for log reduction at 12 µg/mL: 12 ug/ml compound, read-out: TCID-50 Reduction 12 @ ug/ml; for log reduction at 25 µg/mL: 25 ug/ml compound, read-out: TCID-50 Reduction 25 @ ug/ml; for log reduction at 6 µg/mL: 6 ug/ml compound, read-out: TCID-50 Reduction 6 @ ug/ml
Description: Four concentrations of each compound were evaluated (Table 3). Briefly, the four concentrations of test compounds, HEp-2 cells (8×10^3 per well) and RSV, Long strain (MOI=0.9) were plated in 96 well microtiter plates. The plates were incubated for 48 hours. Fifteen (15) μl of 10-fold serial dilution of progeny virus containing medium from respective samples (test compound treated or untreated) was transferred to infect fresh HEp-2 cells (2×10^3 cells per well) in a 384 well format. Plates were incubated for an additional 6 days and luminescence was measured using Cell Titer-Glo reagent (Promega Inc.) to determine cell viability. […] A well showing lesser than 50% cell viability was regarded as positive for virus infection. Four replicates for each virus dilution were analyzed and the number of virus positive wells (out of 4) was plotted versus the dilution. TCID50 was calculated to be the dilution that produced two positive wells out of four using ActivityBase software (IDBS, Inc, Guilford, UK).

[1] = system: respiratory syncytial virus (RSV) strain Long; experiment: microbe, parasite or virus in culture; details: human respiratory syncytial virus, HEp-2, 144 h
[2] = cytotoxicity assay (percent viability of HEp-2 cells, Cell Titer-Glo); details: human, HEp-2 cells

With `O=C(c1cc(Cl)ccc1Cl)N1CCCN(C(=O)c2cc(Cl)ccc2Cl)CC1` [AB00311948] as the compound, how does the log reduction at 3 µg/mL (RSV, Long strain) read?
Its log reduction at 3 µg/mL is 3.13.

And the log reduction at 5 µg/mL (RSV, Long strain)?
The log reduction at 5 µg/mL was 4.64.

And the log reduction at 12 µg/mL (RSV, Long strain)?
Its log reduction at 12 µg/mL is 5.56.

And the log reduction at 25 µg/mL (RSV, Long strain)?
Its log reduction at 25 µg/mL is 5.9.

And the EC50 [1]?
The EC50 was 2.32 µg/mL.

And the CC50 at 6 days [2]?
Its CC50 at 6 days is over 25 µg/mL.

What does the source list for `Cc1ccccc1C(=O)N1CCCN(C(=O)c2ccccc2C)CC1` [AB00312102]?
log reduction at 3 µg/mL (RSV, Long strain): 1.53; log reduction at 6 µg/mL (RSV, Long strain): 1.86; log reduction at 12 µg/mL (RSV, Long strain): 2.68; log reduction at 25 µg/mL (RSV, Long strain): 2.39; EC50 [1]: 3.71 µg/mL; CC50 at 6 days [2]: > 25 µg/mL

For `O=C(Cc1cccs1)Nc1nc2c(s1)CCCC2` [AB00313042], which log reduction at 3 µg/mL (RSV, Long strain) is on record?
The log reduction at 3 µg/mL was 3.56.

And the log reduction at 6 µg/mL (RSV, Long strain)?
The log reduction at 6 µg/mL was 5.24.

And the log reduction at 12 µg/mL (RSV, Long strain)?
The log reduction at 12 µg/mL was 5.43.

And the log reduction at 25 µg/mL (RSV, Long strain)?
Its log reduction at 25 µg/mL is 6.4.

What about the EC50 [1] of the same compound?
Its EC50 is 1.89 µg/mL.

What about the CC50 at 6 days [2] of the same compound?
The CC50 at 6 days was over 25 µg/mL.

Which results are given for `Cc1ccc(S(=O)(=O)Nc2ccc(NC(=O)c3c(F)c(F)c(F)c(F)c3F)cc2)cc1` [AB00314111]?
log reduction at 3 µg/mL (RSV, Long strain): 1; log reduction at 6 µg/mL (RSV, Long strain): 1.01; log reduction at 12 µg/mL (RSV, Long strain): 1.41; log reduction at 25 µg/mL (RSV, Long strain): 3.05; EC50 [1]: 6.97 µg/mL; CC50 at 6 days [2]: > 25 µg/mL

What does the source list for `COC(=O)C1=C(C)N(Cc2ccccc2)C(=O)NC1c1ccc(OC)c(OC)c1` (stereo not drawn) [AB00318114]?
log reduction at 3 µg/mL (RSV, Long strain): 2.42; log reduction at 5 µg/mL (RSV, Long strain): 4.69; log reduction at 12 µg/mL (RSV, Long strain): 5.56; log reduction at 25 µg/mL (RSV, Long strain): 5.9; EC50 [1]: 3.37 µg/mL; CC50 at 6 days [2]: > 25 µg/mL

What does the source list for `COCc1cc(C)nc(SCC(=O)Nc2ccccc2C(=O)c2ccccc2)c1C#N` [AB00341850]?
log reduction at 3 µg/mL (RSV, Long strain): 1; log reduction at 6 µg/mL (RSV, Long strain): 2.3; log reduction at 12 µg/mL (RSV, Long strain): 2.41; log reduction at 25 µg/mL (RSV, Long strain): 2.23; EC50 [1]: 2.19 µg/mL; CC50 at 6 days [2]: > 25 µg/mL

With `COCc1cc(C)nc(SCC(=O)Nc2ccccc2N2CCOCC2)c1C#N` [AB00345103] as the compound, how does the log reduction at 3 µg/mL (RSV, Long strain) read?
Its log reduction at 3 µg/mL is 1.

What about the log reduction at 6 µg/mL (RSV, Long strain) of the same compound?
Its log reduction at 6 µg/mL is 1.31.

What about the log reduction at 12 µg/mL (RSV, Long strain) of the same compound?
Its log reduction at 12 µg/mL is 3.2.

What about the log reduction at 25 µg/mL (RSV, Long strain) of the same compound?
Its log reduction at 25 µg/mL is 2.86.

What about the EC50 [1] of the same compound?
Its EC50 is 2.18 µg/mL.

And the CC50 at 6 days [2]?
The CC50 at 6 days was over 25 µg/mL.

Which log reduction at 3 µg/mL (RSV, Long strain) does the source give for `Cc1cc(C)cc(C(=O)Nc2cccc(NC(=O)c3ccccc3C)c2)c1` [AB00353228] here?
Its log reduction at 3 µg/mL is 1.55.

What about the log reduction at 6 µg/mL (RSV, Long strain) of the same compound?
The log reduction at 6 µg/mL was 2.87.

And the log reduction at 12 µg/mL (RSV, Long strain)?
The log reduction at 12 µg/mL was 3.42.

And the log reduction at 25 µg/mL (RSV, Long strain)?
The log reduction at 25 µg/mL was 3.43.

What about the EC50 [1] of the same compound?
The EC50 was 9.78 µg/mL.

What about the CC50 at 6 days [2] of the same compound?
Its CC50 at 6 days is over 25 µg/mL.

Which log reduction at 3 µg/mL (RSV, Long strain) does the source give for `Oc1ccc(Nc2nc(-c3ccc(O)cc3)cs2)cc1` [AB00355020] here?
Its log reduction at 3 µg/mL is 1.

And the log reduction at 6 µg/mL (RSV, Long strain)?
The log reduction at 6 µg/mL was 1.01.

What about the log reduction at 12 µg/mL (RSV, Long strain) of the same compound?
The log reduction at 12 µg/mL was 2.2.

And the log reduction at 25 µg/mL (RSV, Long strain)?
The log reduction at 25 µg/mL was 2.55.

What about the EC50 [1] of the same compound?
Its EC50 is 2.77 µg/mL.

What about the CC50 at 6 days [2] of the same compound?
The CC50 at 6 days was over 25 µg/mL.

With `Cc1ccn2cc(-c3cccc(NS(=O)(=O)c4ccccc4)c3)nc2c1` [AB00356285] as the compound, how does the log reduction at 3 µg/mL (RSV, Long strain) read?
Its log reduction at 3 µg/mL is 1.14.

What about the log reduction at 6 µg/mL (RSV, Long strain) of the same compound?
Its log reduction at 6 µg/mL is 1.38.

What about the log reduction at 12 µg/mL (RSV, Long strain) of the same compound?
Its log reduction at 12 µg/mL is 2.42.

What about the log reduction at 25 µg/mL (RSV, Long strain) of the same compound?
Its log reduction at 25 µg/mL is 3.78.

What about the EC50 [1] of the same compound?
The EC50 was 4.04 µg/mL.

What about the CC50 at 6 days [2] of the same compound?
The CC50 at 6 days was over 25 µg/mL.

Which log reduction at 3 µg/mL (RSV, Long strain) does the source give for `CCOC(=O)Cc1ccc(NC(=O)c2cc(SC)ccc2Cl)cc1` [AB00359299] here?
Its log reduction at 3 µg/mL is 1.

And the log reduction at 6 µg/mL (RSV, Long strain)?
Its log reduction at 6 µg/mL is 1.22.

And the log reduction at 12 µg/mL (RSV, Long strain)?
Its log reduction at 12 µg/mL is 1.99.

What about the log reduction at 25 µg/mL (RSV, Long strain) of the same compound?
Its log reduction at 25 µg/mL is 2.83.

And the EC50 [1]?
The EC50 was 6.76 µg/mL.

And the CC50 at 6 days [2]?
The CC50 at 6 days was over 25 µg/mL.

With `O=C(Nc1ccccc1)N1CCc2cc([N+](=O)[O-])ccc21` [AB00705281] as the compound, how does the log reduction at 5 µg/mL (RSV, Long strain) read?
The log reduction at 5 µg/mL was 4.75.

What about the log reduction at 12 µg/mL (RSV, Long strain) of the same compound?
Its log reduction at 12 µg/mL is 4.2.

What about the log reduction at 25 µg/mL (RSV, Long strain) of the same compound?
Its log reduction at 25 µg/mL is 5.56.

And the log reduction at 50 µg/mL (RSV, Long strain; 50 ug/ml compound, read-out: TCID-50 Reduction @ 50 ug/ml)?
The log reduction at 50 µg/mL was 5.9.

What does the source list for `Cc1ccc2c(Cn3cnc4scc(-c5ccc(F)cc5)c4c3=O)cc(=O)oc2c1` [AB00796970]?
EC50 [1]: 10.6 µM; CC50 at 6 days [2]: > 50 µM

With `COc1cc(SC)ccc1C(=O)Nc1ccc(C(=O)NC2CC2)cc1` [AB00797753] as the compound, how does the EC50 [1] read?
The EC50 was 29.9 µM.

What about the CC50 at 6 days [2] of the same compound?
The CC50 at 6 days was over 50 µM.

With `CC(=O)Nc1ccc(S(=O)(=O)N(C)CC(=O)Nc2ccccc2Oc2ccccc2)cc1` [AB00798716] as the compound, how does the EC50 [1] read?
The EC50 was 49.8 µM.

What about the CC50 at 6 days [2] of the same compound?
The CC50 at 6 days was over 50 µM.

What does the source list for `NCc1cn2ccccc2n1` [AB00877180]?
EC50 [1]: 15.1 µM; CC50 at 6 days [2]: > 50 µM

For `Clc1ccccc1OCc1noc(-c2cccs2)n1` [AB00877365], which EC50 [1] is on record?
The EC50 was 38.8 µM.

And the CC50 at 6 days [2]?
The CC50 at 6 days was over 50 µM.

What does the source list for `O=C(CCc1ccccc1)Nc1sc2c(c1C(=O)O)CCC2` [AB00877405]?
EC50 [1]: 27.8 µM; CC50 at 6 days [2]: > 50 µM

With `CNc1ncnc2c1ncn2[C@@H]1C[C@H](CO)[C@H](O)[C@@H]1O` [SRI-4711] as the compound, how does the EC50 [1] read?
The EC50 was 24.5 µM.

And the CC50 at 6 days [2]?
The CC50 at 6 days was over 50 µM.
